The test system of one experiment is Candida albicans. Put plainly: MIC, RPMI medium, Candida albicans. In kind it is cell-based. The following applies: read-out: MIC C. albicans. On the procedure:
(§1) Measurement of Minimum Inhibitory Concentrations (MICs)
(§2) Between 1 and 5 mgs of compound were accurately weighed out into a sterile Eppendorf tube. The compound was dissolved in DMSO to give a solution containing 5 mg/ml. Tubes were stored at −20° C. until required.
(§3) On the day of testing thawed solutions were vortex mixed to ensure homogeneity. 30 μl of solution was removed and added to 570 μl of sterile water in a separate sterile Eppendorf. The thoroughly mixed solution was used to prepare a series of doubling dilutions in water, in a deep well plate. Eleven replicate plates were prepared using a Minitrak by aspirating 20 μl from each well into eleven clear polystyrene 96 well plates.
(§4) Spores of Aspergillus spp (Aspergillus fumigatus, Aspergillus terreus, Aspergillus niger and Aspergillus flavus) were harvested from cultures grown on Sabarauds agar for 5 days, and resuspended in PBS/Tween 80 to approx 1×10^7 cfu/ml Other filamentous fungi (Fusarium solani, Scedosporium spp., Trichophyton spp., Absidia corymbifera), were grown on Sabarauds agar for 2-10 days and spores/hyphae resuspended in PBS/Tween to give approx 1×10^7 cfU/ml. Candida species (Candida albicans, Candida glabrata, Candida krusei, Candida parapsilosis and Candida tropicalis) were grown on Sabarauds agar, cells were harvested from the agar using a sterile loop and resuspended in PBS/Tween 80 to approx 1×10^6 cfu/ml. Each organism suspension was diluted in RPMI medium, containing 2% glucose and 0.135M MOPS buffer (pH7.0) to 2×10^4 cfu/ml for Aspergillus spp and other filamentous fungi and 2×10^3 cfu/ml for yeast. 80 μl of an organism suspension was added to each well of the plate containing drug dilutions.
(§5) This produced MIC plates with a drug range 50-0.05 mg/L and organism inocula of 1-2×10^4 cfu/ml for Aspergillus spp and other filamentous fungi and 1-2×10^3 cfu/ml for yeasts. All plates were incubated for 24-48 hrs at 35° C. Growth was assessed by monitoring the optical density at 485 nm for each well. The MIC of a compound is the lowest drug concentration that inhibits growth of an organism by >80% compared with a drug free control. MICs are recorded as mg/L. Other growth media can be used for susceptibility testing, and the activity of the described compounds can also be assessed in a medium comprising, 1% glucose, 1% ammonium chloride and 0.5% yeast extract (YAG medium). To perform MIC tests in this medium, dilutions of compounds are prepared in microtitre plates as described above. Fungal strains to be tested are grown and harvested in an identical manner to that described above, each organism suspension is then diluted in YAG medium to 2×10^4 cfu/ml for Aspergillus spp and other filamentous fungi and 2×10^3 cfu/ml for yeast. 80 μl of an organism suspension was added to each well of the plate containing drug dilutions. This produced MIC plates with a drug range 50-0.05 mg/L and organism inocula of 1-2×10^4 cfu/ml for Aspergillus spp and other filamentous fungi and 1-2×10^3 cfu/ml for yeasts. All plates were incubated for 24 hrs at 35° C. Growth was assessed by monitoring the optical density at 485 nm for each well. The MIC of a compound is the lowest drug concentration that inhibits growth of an organism by >70% compared with a drug free control. MICs are recorded as mg/L. In cases where the MIC of an organism is […]0.05 mg/L the MIC is repeated using a concentration range of 0.5-0.0005 mg/L. MIC tests in YAG medium have more clear-cut endpoints and have slightly lower MICS than those performed in RPMI medium.
(§6) The following organisms were tested: Aspergillus fumigatus AF293 and Aspergillus fumigatus AF210, Aspergillus niger, Aspergillus terreus, Aspergillus favus, Candida albicans, Candida krusei, Candida tropicalis, Candida glabrata, Candida parapsilosis, Trichophyton rubrum, Trichophyton mentagrophytes, Scedosporium prolificans, Scedosporium apiospermum, Absidia corymbifera, Fusarium solani.

The test system of the next experiment is Candida glabrata. Put plainly: MIC, RPMI medium, Candida glabrata. In kind it is cell-based. The following applies: Nakaseomyces glabratus, read-out: MIC C. glabrata. On the procedure:
as §1, §2, §3, §4, §5, §6

The test system of a further experiment is Candida krusei. Description: MIC, RPMI medium, Candida krusei. To be noted: Pichia kudriavzevii, read-out: MIC C. krusei. In kind it is cell-based. On the procedure:
as §1, §2, §3, §4, §5, §6

Another experiment concerns Candida parapsilosis. Description: MIC, RPMI medium, Candida parapsilosis. In kind it is cell-based. The following applies: Lodderomyces parapsilosis, read-out: MIC C. parapsilosis. On the procedure: as §1, §2, §3, §4, §5, §6
Another experiment relates to Candida tropicalis. Description: MIC, RPMI medium, Candida tropicalis. In kind it is cell-based. The following applies: read-out: MIC C. tropicalis. On the procedure: as §1, §2, §3, §4, §5, §6
The next experiment relates to Aspergillus flavus. Put plainly: MIC, YAG medium, Aspergillus flavus. In kind it is cell-based. To be noted: Aspergillus flavus; YAG medium; read-out: MIC A Flavus 01. The method, boiled down:
(§7)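 Yeast: RPMI + 2% glucose + 0.135M MOPS pH7.0, 1-2×10^3 cfu/ml, 35° C 24-48 h, OD485, MIC at >80% inhib. Aspergillus: YAG (1% glucose, 1% NH4Cl, 0.5% yeast extract), spores 1-2×10^4 cfu/ml, 35° C 24 h, MIC at >70% inhib. Range 50-0.05 mg/L.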

Experiment [1] has as its system Aspergillus fumigatus AF293. Put plainly: MIC, YAG medium, Aspergillus fumigatus AF293. In kind it is cell-based. To be noted: Aspergillus fumigatus, AF293; YAG medium; read-out: MIC A Fum. 293. The method, boiled down:
as §7

The test system of another experiment is Aspergillus niger. Description: MIC, YAG medium, Aspergillus niger. In kind it is cell-based. To be noted: Aspergillus niger; YAG medium; read-out: MIC A Niger 1. The essentials:
as §7

For another experiment, the system named is Aspergillus terreus. Description: MIC, YAG medium, Aspergillus terreus. In kind it is cell-based. To be noted: Aspergillus terreus; YAG medium; read-out: MIC A Terreus 4. The essentials: as §7
Experiment [2] concerns Aspergillus fumigatus AF210. Put plainly: MIC, YAG medium, Aspergillus fumigatus AF210. In kind it is cell-based. To be noted: Aspergillus fumigatus, AF210; YAG medium; read-out: MIC A Fum. 210. The essentials:
as §7

In another experiment the test system is A Terreus 49. Put plainly: MIC, YAG medium, A Terreus 49. In kind it is cell-based, Aspergillus terreus. The following applies: Aspergillus terreus; YAG medium; read-out: MIC A Terreus 49. The essentials: as §7

The structures appear in SMILES notation. ≈ marks a conversion by molar mass, not a printed value.

Here are results for 6 molecules from patent publication US8486962B2, “Antifungal agents” (F2G Ltd., priority 2005, dated 2013).

With `COCCNC(=O)C(=O)c1c(-c2cccnc2)cc2ccccn12` [Example 185, N-(2-Methoxy-ethyl)-2-oxo-2-(2-pyridin-3-yl-indolizin-3-yl)-acetamide], the MIC in the experiment with Candida albicans was 50 µg/mL (≈ 155 µM); in the experiment with Candida glabrata, above 50 µg/mL; with Candida krusei, above 50 µg/mL; in the experiment on Candida parapsilosis it was 50 µg/mL (≈ 155 µM); with Candida tropicalis, 12.5 µg/mL (≈ 38.7 µM).
In the case of `O=C(Nc1ccc(C(F)(F)F)cc1)C(=O)c1c(-c2cccnc2)cc2ccccn12` [Example 212, 2-Oxo-2-(2-pyridin-3-yl-indolizin-3-yl)-N-(4-trifluoromethyl-phenyl)-acetamide], the MIC in the experiment with Aspergillus flavus was 0.05 µg/mL (≈ 0.122 µM); in [1], 0.8 µg/mL (≈ 1.95 µM); in the experiment with Aspergillus niger, 0.4 µg/mL (≈ 0.977 µM); with Aspergillus terreus it was 0.1 µg/mL (≈ 0.244 µM); in experiment [2] it was 0.4 µg/mL (≈ 0.977 µM); with Candida albicans, above 50 µg/mL. Also, the MIC in the experiment on Candida glabrata is 25 µg/mL (≈ 61.1 µM); in the experiment with Candida krusei it was above 50 µg/mL; in the experiment with Candida parapsilosis, above 50 µg/mL; in the experiment with Candida tropicalis it was above 50 µg/mL.
Consider `O=C(Nc1ccc(Nc2ccccn2)cc1)C(=O)c1c(-c2ccccc2)cc2ccccn12` [Example 270, 2-Oxo-2-(2-phenyl-indolizin-3-yl)-N-[4-(pyridin-2-ylamino)-phenyl]-acetamide], for which the MIC in the experiment with Aspergillus flavus came out at 0.05 µg/mL (≈ 0.116 µM); in experiment [1], 0.05 µg/mL (≈ 0.116 µM); in the experiment on Aspergillus niger it was 0.05 µg/mL (≈ 0.116 µM); in the experiment with Aspergillus terreus, 0.05 µg/mL (≈ 0.116 µM); in experiment [2] it was 0.015 µg/mL (≈ 0.0347 µM); in the experiment with A Terreus 49 it was 0.12 µg/mL (≈ 0.277 µM). Also, the MIC in the experiment with Candida albicans is 6.25 µg/mL (≈ 14.5 µM); with Candida glabrata it was 50 µg/mL (≈ 116 µM); with Candida krusei, 50 µg/mL (≈ 116 µM); with Candida parapsilosis it was 50 µg/mL (≈ 116 µM); in the experiment on Candida tropicalis, 25 µg/mL (≈ 57.8 µM).
Take `O=C(Nc1ccc(-c2nnn[nH]2)cc1)C(=O)c1c(-c2ccccc2)cc2ccccn12` [Example 271, 2-Oxo-2-(2-phenyl-indolizin-3-yl)-N-[4-(1H-tetrazol-5-yl)-phenyl]-acetamide]: the MIC came to 50 µg/mL (≈ 122 µM) in the experiment with Aspergillus flavus; 50 µg/mL (≈ 122 µM) in [1]; 50 µg/mL (≈ 122 µM) in the experiment with Aspergillus niger; 25 µg/mL (≈ 61.2 µM) in the experiment with Aspergillus terreus; 50 µg/mL (≈ 122 µM) in experiment [2]; 25 µg/mL (≈ 61.2 µM) in the experiment with A Terreus 49. In addition, the MIC came out at 3.1 µg/mL (≈ 7.59 µM) with Candida albicans; 50 µg/mL (≈ 122 µM) with Candida glabrata; 50 µg/mL (≈ 122 µM) with Candida krusei; 50 µg/mL (≈ 122 µM) with Candida parapsilosis; 25 µg/mL (≈ 61.2 µM) in the experiment on Candida tropicalis.
For `O=C1CCN(c2ccc(NC(=O)C(=O)c3c(-c4ccccc4)cc4ccccn34)cc2)CC1` [Example 272, 2-Oxo-N-[4-(4-oxo-piperidin-1-yl)-phenyl]-2-(2-phenyl-indolizin-3-yl)-acetamide], the minimal inhibitory concentration (MIC) came out at 0.062 µg/mL (≈ 0.142 µM) in the experiment with Aspergillus flavus; 0.25 µg/mL (≈ 0.571 µM) in experiment [1]; 0.5 µg/mL (≈ 1.14 µM) in the experiment on Aspergillus niger; 0.12 µg/mL (≈ 0.274 µM) with Aspergillus terreus; 0.5 µg/mL (≈ 1.14 µM) in experiment [2]; 0.12 µg/mL (≈ 0.274 µM) in the experiment on A Terreus 49. For the same molecule, the minimal inhibitory concentration (MIC) in the experiment with Candida albicans was found to be 1.6 µg/mL (≈ 3.66 µM); in the experiment on Candida glabrata, 50 µg/mL (≈ 114 µM); in the experiment on Candida krusei, 50 µg/mL (≈ 114 µM); in the experiment with Candida parapsilosis, 25 µg/mL (≈ 57.1 µM); in the experiment with Candida tropicalis, 6.25 µg/mL (≈ 14.3 µM).
As for `CN(C)c1ccc(NC(=O)C(=O)c2c(-c3ccccc3)cc3ccccn23)cc1C(=O)O` [Example 274, 2-Dimethylamino-5-[2-oxo-2-(2-phenyl-indolizin-3-yl)-acetylamino]-benzoic acid], the MIC in the experiment with Aspergillus flavus is 50 µg/mL (≈ 117 µM); in experiment [1], 50 µg/mL (≈ 117 µM); with Aspergillus niger, above 50 µg/mL; with Aspergillus terreus, above 50 µg/mL; in experiment [2] it was above 50 µg/mL; in the experiment with A Terreus 49, 12.5 µg/mL (≈ 29.2 µM). The minimum inhibitory concentration (MIC) in the experiment on Candida albicans is 3.1 µg/mL (≈ 7.25 µM); in the experiment on Candida glabrata, above 50 µg/mL; with Candida krusei, above 50 µg/mL; in the experiment on Candida parapsilosis, 50 µg/mL (≈ 117 µM); in the experiment on Candida tropicalis it was 12.5 µg/mL (≈ 29.2 µM).

Broadly, the MIC is the lowest concentration that inhibits growth of the organism.
